Source: patent publication US6579878B1, “Pharmaceutical compositions and methods for use” (priority 2000, dated 2003)

Columns and labels:
Rat brain synaptosomes = assay: Neurotransmitter release from brain synaptosomes; type: biochemical; conditions: in the presence of 10 uM ligand; percentage of release obtained with 10 uM (S)-(-)-nicotine or 300 uM TMA
Procedure: Neurotransmitter release was measured using techniques similar to those previously published (Bencherif M, et al.: JPET 279: 1413-1421,1996).
Rat brain synaptosomes were prepared as follows: Female Sprague Dawley rats (100-200 g) were killed by decapitation after anesthesia with 70% CO2. Brains are dissected, and hippocampus, striatum, and thalamus isolated, and homogenized in 0.32 M sucrose containing 5 mM HEPES pH 7.4 using a glass/glass homogenizer. The tissue was then centrifuged for 1000×g for 10 minutes and the pellet discarded. The supernatant was centrifuged at 12000×g for 20 minutes. The resultant pellet was re-suspended in perfusion buffer (128 mM NaCl, 1.2 mM KH2PO4, 2.4 mM KCl, 3.2 mM CaCl2, 1.2 mM MgSO4, 25 mM HEPES, 1 mM Ascorbic acid, 0.01 mM pargyline HCl and 10 mM glucose pH 7.4) and centrifuged for 15 minutes at 25000×g. The final pellet was resuspended in perfusion buffer and placed in a water bath (37° C.) for 10 minutes. […] The perfusate was collected directly into scintillation vials and released radioactivity was quantified using conventional liquid scintillation techniques. Release of neurotransmitter was determined in the presence of 10 uM of various ligands and was expressed as a percentage of release obtained with a concentration of 10 uM (S)-(−)-nicotine or 300 uM TMA resulting in maximal effects.

[1] = target: muscle-type nicotinic acetylcholine receptors (Homo sapiens, UniProt P02708+P07510+Q07001); assay: Determination of interaction with muscle receptors; type: cell-based; conditions: percentage of the maximal activation induced by (S)-(-)-nicotine
Sequence of muscle-type nicotinic acetylcholine receptors (P02708 21-457): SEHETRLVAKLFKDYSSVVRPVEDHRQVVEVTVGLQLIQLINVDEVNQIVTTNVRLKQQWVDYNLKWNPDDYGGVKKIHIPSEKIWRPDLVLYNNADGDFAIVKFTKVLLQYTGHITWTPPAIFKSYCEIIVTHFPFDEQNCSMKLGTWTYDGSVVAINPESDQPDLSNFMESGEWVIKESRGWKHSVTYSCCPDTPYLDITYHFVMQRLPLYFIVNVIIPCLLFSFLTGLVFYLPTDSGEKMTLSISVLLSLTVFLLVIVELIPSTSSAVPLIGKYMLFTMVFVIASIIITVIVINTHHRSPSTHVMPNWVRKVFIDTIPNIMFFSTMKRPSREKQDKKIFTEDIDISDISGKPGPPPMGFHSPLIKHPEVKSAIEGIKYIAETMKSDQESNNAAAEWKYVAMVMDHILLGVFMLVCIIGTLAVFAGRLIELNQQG
Sequence of muscle-type nicotinic acetylcholine receptors (P11230 24-501 partner): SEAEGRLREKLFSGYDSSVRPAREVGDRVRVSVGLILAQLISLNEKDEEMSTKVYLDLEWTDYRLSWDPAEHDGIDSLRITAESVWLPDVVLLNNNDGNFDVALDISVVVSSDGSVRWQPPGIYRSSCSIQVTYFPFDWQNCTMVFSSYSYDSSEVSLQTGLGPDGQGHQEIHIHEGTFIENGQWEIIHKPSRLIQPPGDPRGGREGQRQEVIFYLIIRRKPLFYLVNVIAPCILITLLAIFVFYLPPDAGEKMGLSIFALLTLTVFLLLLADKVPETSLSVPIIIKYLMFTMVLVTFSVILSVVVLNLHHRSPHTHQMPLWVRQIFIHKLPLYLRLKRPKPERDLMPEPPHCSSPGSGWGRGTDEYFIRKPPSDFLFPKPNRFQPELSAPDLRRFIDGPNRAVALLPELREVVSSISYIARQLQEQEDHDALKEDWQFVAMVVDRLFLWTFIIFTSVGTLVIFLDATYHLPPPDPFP
Sequence of muscle-type nicotinic acetylcholine receptors (Q07001 22-517): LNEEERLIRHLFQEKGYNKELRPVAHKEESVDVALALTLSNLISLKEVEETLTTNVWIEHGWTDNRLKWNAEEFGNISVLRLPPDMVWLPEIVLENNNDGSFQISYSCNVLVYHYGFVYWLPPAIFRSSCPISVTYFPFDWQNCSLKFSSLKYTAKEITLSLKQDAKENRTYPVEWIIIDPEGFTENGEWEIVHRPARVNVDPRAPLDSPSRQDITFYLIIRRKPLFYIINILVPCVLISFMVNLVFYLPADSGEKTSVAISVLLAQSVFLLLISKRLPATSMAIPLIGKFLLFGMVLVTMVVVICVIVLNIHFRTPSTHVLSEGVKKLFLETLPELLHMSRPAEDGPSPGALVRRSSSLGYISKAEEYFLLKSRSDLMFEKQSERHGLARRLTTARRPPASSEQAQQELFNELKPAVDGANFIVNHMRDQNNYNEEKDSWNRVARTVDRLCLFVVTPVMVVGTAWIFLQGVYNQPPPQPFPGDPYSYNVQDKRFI
Sequence of muscle-type nicotinic acetylcholine receptors (P07510 23-517): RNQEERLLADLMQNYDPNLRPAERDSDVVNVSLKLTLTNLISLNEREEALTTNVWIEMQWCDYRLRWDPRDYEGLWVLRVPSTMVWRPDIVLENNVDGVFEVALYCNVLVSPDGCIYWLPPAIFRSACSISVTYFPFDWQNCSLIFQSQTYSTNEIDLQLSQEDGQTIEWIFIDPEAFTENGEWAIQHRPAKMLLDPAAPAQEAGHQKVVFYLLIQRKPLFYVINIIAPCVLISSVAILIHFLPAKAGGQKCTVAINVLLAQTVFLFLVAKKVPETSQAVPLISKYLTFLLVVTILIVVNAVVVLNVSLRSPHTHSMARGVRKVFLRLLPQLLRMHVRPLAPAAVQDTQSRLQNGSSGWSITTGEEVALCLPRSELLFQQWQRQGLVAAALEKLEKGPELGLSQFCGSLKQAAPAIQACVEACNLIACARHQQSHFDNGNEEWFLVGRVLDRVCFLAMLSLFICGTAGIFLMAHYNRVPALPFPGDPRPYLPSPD
Procedure: (§1) The determination of the interaction of the compounds with muscle receptors was carried out in accordance with the techniques described in U.S. Pat. No. 5,597,919 to Dull et al. The maximal activation for individual compounds (Emax) was determined as a percentage of the maximal activation induced by (S)-(−)-nicotine. Reported Emax values represent the amount released relative to (S)-(−)-nicotine on a percentage basis. […] Such preferable compounds have the capability to activate human CNS receptors without activating muscle-type nicotinic acetylcholine receptors. Thus, there is provided a therapeutic window for utilization in the treatment of CNS disorders.

[2] = system: ganglia-type nicotinic acetylcholine receptors; assay: Determination of interaction with ganglion receptors; type: cell-based; conditions: percentage of the maximal activation induced by (S)-(-)-nicotine
Procedure: as §1, with “ganglionic” for “muscle”, “ganglia-type” for “muscle-type”

With `c1cncc(CC2CC3CCC2N3)c1` (stereo not drawn) [Example 1, 2-((3-pyridyl)methyl)-7-azabicyclo[2.2.1]heptane] the “Emax, neurotransmitter release” value (Rat brain synaptosomes) was 15%, the Emax [1] was 52% and the “Emax, maximal activation at ganglia-type receptors” value [2] was 48%.
